{"source": "ChEMBL document CHEMBL5715945", "about": "(Cancer Biol Ther, 2010)", "key": {"[1]": {"molecular_target": "Aurora kinase A (Homo sapiens) (UniProt O14965)", "sequence (O14965 whole entry)": "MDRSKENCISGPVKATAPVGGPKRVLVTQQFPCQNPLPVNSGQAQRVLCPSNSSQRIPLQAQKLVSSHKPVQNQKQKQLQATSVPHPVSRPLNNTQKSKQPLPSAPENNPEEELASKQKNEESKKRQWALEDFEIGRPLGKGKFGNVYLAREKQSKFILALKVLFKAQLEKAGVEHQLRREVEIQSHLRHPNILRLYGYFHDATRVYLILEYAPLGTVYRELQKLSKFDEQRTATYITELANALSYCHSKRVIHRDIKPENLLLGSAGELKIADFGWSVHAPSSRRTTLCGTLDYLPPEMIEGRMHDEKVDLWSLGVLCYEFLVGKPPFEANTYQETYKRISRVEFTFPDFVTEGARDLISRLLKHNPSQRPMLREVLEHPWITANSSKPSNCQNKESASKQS", "assay": "Inhibition of Aurora-A (unknown origin) at 1 uM relative to control"}, "[2]": {"molecular_target": "Focal adhesion kinase 1 (Mus musculus) (UniProt P34152)", "sequence (P34152 whole entry)": "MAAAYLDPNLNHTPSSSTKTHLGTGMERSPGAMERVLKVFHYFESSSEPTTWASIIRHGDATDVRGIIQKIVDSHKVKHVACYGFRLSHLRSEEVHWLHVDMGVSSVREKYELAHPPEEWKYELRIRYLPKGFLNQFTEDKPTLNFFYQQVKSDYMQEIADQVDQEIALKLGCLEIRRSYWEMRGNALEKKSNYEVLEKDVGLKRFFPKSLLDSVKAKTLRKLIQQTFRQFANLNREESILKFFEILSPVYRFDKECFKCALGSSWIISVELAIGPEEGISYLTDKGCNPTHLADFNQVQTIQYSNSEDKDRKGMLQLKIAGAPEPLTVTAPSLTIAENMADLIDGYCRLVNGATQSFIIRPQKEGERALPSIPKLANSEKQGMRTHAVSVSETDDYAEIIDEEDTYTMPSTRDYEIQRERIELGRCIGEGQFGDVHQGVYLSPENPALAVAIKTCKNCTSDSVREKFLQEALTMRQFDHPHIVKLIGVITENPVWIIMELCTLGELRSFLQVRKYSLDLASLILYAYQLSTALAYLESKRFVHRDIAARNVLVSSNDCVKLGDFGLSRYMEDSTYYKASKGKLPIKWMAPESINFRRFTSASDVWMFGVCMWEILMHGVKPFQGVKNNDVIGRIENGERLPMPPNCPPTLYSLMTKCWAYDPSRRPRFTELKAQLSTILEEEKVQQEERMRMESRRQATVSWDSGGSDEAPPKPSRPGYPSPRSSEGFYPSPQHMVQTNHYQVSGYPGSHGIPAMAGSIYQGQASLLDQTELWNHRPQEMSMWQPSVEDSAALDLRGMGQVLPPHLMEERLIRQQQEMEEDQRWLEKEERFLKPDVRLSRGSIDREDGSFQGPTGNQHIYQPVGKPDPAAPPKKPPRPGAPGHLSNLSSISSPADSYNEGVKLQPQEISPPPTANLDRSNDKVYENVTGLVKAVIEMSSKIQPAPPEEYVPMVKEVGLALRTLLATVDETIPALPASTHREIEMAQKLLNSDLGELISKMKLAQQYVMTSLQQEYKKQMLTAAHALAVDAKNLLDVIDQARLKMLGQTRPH", "assay": "Inhibition of FAK phosphorylation at Tyr397 residue in mouse 4T1 cells harbouring mCherry red fluorescent protein at 0.1 to 1 uM incubated for 60 mins followed by compound washout measured after 60 mins by immunoblotting analysis", "assay_type": "cell-based", "conditions": "dose 0.1-1 µM"}, "4T1 [3]": {"tested_on": "4T1", "assay": "Induction of apoptosis in mouse 4T1 suspended cells at 0.1 to 1 uM incubated for 48 hrs by PI staining based flow cytometry analysis", "assay_type": "functional, cell-based", "conditions": "dose 0.1-1 µM"}, "[4]": {"molecular_target": "Focal adhesion kinase 1 (Mus musculus) (UniProt P34152)", "assay": "Inhibition of FAK phosphorylation at Y397 residue in mouse 4T1 adherent cells at 0.1 uM incubated for 24 hrs by immunoblotting analysis", "assay_type": "cell-based"}, "[5]": {"molecular_target": "Focal adhesion kinase 1 (Mus musculus) (UniProt P34152)", "assay": "Inhibition of FAK phosphorylation at Y397 residue in mouse 4T1 suspended cells at 0.1 uM incubated for 24 hrs by immunoblotting analysis", "assay_type": "cell-based"}, "4T1 [6]": {"tested_on": "4T1", "assay": "Induction of apoptosis in mouse 4T1 suspended cells assessed as increase in cleaved caspase 3 expression at 0.4 uM incubated for 24 hrs by immunoblotting analysis", "assay_type": "functional, cell-based"}, "4T1 [7]": {"tested_on": "4T1", "assay": "Induction of apoptosis in mouse 4T1 adherent cells upto 0.1 uM incubated for 24 hrs by annexin V staining based flow cytometry analysis", "assay_type": "functional, cell-based"}, "4T1 [8]": {"tested_on": "4T1", "assay": "Effect on p130Cas phosphorylation in mouse 4T1 cultured as […] at 0.1 to 1 uM incubated for 24 hrs by immunoblotting analysis", "assay_type": "functional, cell-based", "conditions": "dose 0.1-1 µM"}, "4T1 [9]": {"tested_on": "4T1", "assay": "Antitumor activity against mouse 4T1 cells harbouring mCherry red fluorescent protein implanted in BALB/c mouse assessed as increase in apoptosis in tumor at 30 to 100 mg/kg, sc bid measured after 5 days by TUNEL staining based microscopic analysis", "assay_type": "functional, organism-based", "conditions": "dose 30-100 mg/kg, time 5.0 day"}, "[10]": {"molecular_target": "Insulin receptor (Homo sapiens) (UniProt P06213)", "sequence (P06213 28-758 limits assumed)": "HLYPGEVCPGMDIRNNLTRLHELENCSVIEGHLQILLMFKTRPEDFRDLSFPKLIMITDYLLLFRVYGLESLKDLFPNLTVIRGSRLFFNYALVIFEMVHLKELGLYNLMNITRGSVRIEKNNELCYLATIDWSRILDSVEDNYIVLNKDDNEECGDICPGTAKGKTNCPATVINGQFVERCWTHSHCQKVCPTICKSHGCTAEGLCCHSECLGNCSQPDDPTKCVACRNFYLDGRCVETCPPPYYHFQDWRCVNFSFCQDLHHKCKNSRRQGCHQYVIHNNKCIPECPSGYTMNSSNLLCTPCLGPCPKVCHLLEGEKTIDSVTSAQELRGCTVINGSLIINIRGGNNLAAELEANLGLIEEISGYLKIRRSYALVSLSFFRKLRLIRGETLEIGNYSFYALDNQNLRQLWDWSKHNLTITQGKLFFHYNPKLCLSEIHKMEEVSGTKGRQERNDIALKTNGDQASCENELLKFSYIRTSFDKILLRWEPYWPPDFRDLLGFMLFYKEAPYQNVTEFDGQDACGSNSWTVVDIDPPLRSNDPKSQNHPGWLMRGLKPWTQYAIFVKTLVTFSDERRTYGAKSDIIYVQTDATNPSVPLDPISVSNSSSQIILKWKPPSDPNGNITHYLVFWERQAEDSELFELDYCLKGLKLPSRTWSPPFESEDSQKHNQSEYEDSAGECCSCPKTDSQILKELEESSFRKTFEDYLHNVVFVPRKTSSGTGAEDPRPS", "sequence (P06213 763-1382 limits assumed)": "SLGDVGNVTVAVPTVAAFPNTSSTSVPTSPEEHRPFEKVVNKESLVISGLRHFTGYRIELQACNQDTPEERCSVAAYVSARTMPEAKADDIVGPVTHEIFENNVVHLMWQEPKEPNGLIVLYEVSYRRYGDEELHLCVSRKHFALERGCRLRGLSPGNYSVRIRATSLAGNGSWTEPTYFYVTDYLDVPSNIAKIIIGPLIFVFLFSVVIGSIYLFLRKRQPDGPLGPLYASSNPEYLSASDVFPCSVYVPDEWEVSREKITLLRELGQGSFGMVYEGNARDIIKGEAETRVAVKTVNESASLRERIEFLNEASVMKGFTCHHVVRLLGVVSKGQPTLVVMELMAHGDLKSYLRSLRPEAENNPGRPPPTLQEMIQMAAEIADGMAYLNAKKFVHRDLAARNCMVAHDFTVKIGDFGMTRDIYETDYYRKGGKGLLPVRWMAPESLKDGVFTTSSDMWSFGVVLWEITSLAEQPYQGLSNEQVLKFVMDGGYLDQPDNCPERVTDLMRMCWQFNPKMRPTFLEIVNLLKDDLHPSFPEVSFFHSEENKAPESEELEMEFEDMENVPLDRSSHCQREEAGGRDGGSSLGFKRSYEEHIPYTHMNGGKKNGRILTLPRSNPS", "assay": "Inhibition of IR (unknown origin) at 1 uM relative to control; values are per cent of control"}, "[11]": {"molecular_target": "T1, cAMP-dependent protein kinase (PKA) (Homo sapiens) (UniProt P22694+P17612+P22612)", "assay": "Inhibition of PKA (unknown origin) at 1 uM relative to control; values are per cent of control"}, "[12]": {"molecular_target": "Insulin receptor (Homo sapiens) (UniProt P06213)", "assay": "Inhibition of IR (unknown origin) at 0.1 uM relative to control; values are per cent of control"}, "[13]": {"molecular_target": "T1, cAMP-dependent protein kinase (PKA) (Homo sapiens)", "assay": "Inhibition of PKA (unknown origin) at 0.1 uM relative to control; values are per cent of control"}, "[14]": {"molecular_target": "RAF proto-oncogene serine/threonine-protein kinase (Homo sapiens) (UniProt P04049)", "sequence (P04049 whole entry)": "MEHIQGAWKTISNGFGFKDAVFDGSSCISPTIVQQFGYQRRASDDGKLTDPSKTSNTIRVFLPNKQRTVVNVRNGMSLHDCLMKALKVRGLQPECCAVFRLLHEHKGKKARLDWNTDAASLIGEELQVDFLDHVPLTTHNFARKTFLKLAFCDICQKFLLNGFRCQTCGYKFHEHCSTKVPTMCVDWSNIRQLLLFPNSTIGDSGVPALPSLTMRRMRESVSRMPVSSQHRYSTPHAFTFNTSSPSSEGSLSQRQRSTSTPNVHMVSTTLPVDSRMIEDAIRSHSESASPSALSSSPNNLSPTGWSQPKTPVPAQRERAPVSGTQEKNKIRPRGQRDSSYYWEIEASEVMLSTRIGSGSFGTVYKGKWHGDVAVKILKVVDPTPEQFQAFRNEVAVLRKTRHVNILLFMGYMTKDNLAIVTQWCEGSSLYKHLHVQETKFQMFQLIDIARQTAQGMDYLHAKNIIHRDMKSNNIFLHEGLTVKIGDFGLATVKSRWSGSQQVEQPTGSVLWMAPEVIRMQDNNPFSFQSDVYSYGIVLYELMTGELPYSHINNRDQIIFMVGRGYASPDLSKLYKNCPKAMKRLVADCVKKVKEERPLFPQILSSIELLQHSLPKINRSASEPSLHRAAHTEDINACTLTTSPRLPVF", "assay": "Inhibition of c-RAF (unknown origin) at 1 uM relative to control; values are per cent of control"}, "[15]": {"molecular_target": "Serine/threonine-protein kinase Nek6 (Homo sapiens) (UniProt Q9HC98)", "sequence (Q9HC98 whole entry)": "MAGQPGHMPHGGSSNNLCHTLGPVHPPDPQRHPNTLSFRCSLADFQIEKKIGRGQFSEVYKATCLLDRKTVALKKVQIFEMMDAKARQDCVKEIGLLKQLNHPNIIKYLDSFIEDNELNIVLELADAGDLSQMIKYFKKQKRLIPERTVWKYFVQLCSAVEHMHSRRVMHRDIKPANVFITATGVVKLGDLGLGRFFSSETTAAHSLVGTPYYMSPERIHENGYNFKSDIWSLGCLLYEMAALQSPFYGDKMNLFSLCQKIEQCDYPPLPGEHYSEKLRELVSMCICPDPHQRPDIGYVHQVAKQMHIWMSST", "assay": "Inhibition of NEK6 (unknown origin) at 0.1 uM relative to control; values are per cent of control"}, "[16]": {"molecular_target": "Mast/stem cell growth factor receptor Kit (Homo sapiens) (UniProt P10721)", "assay": "Inhibition of c-kit (unknown origin) at 0.1 uM relative to control; values are per cent of control"}, "[17]": {"molecular_target": "Casein kinase I isoform gamma-1 (Homo sapiens) (UniProt Q9HCP0)", "sequence (Q9HCP0 whole entry, looked up, canonical isoform)": "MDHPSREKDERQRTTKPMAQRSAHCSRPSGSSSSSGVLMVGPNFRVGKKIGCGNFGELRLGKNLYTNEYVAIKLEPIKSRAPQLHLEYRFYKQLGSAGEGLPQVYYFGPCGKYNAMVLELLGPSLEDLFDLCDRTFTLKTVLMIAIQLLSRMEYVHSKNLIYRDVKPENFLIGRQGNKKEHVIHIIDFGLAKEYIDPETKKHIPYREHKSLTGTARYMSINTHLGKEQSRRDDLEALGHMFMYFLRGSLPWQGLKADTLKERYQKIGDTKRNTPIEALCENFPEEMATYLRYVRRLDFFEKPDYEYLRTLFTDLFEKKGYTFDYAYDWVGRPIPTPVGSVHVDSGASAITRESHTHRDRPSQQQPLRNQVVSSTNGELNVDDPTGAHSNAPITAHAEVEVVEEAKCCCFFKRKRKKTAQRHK", "assay": "Inhibition of CK1g1 (unknown origin) at 0.1 uM relative to control; values are per cent of control"}, "Homo sapiens": {"organism": "Homo sapiens", "assay": "Inhibition of CDK2/cyclin A (unknown origin) at 0.1 uM relative to control; values are per cent of control"}}, "note": "The source made the active and inactive calls. No cut-off for these calls is given here."}
{"smiles": "CNC(=O)c1ccccc1Nc1cc(Nc2ccc(N3CCOCC3)cc2OC)ncc1C(F)(F)F", "note": "[VS-4718]", "values": [{"measurement": "inhibition", "setting": "[1]", "result": 8, "unit": "%"}, {"measurement": "inhibition", "setting": "[2]", "result": "inactive"}, {"measurement": "Activity", "setting": "4T1 [3]", "result": "inactive"}, {"measurement": "inhibition", "setting": "[4]", "result": "Active"}, {"measurement": "inhibition", "setting": "[5]", "result": "Active"}, {"measurement": "Activity", "setting": "4T1 [6]", "result": "Active"}, {"measurement": "Activity", "setting": "4T1 [7]", "result": "inactive"}, {"measurement": "Activity", "setting": "4T1 [8]", "result": "inactive"}, {"measurement": "Activity", "setting": "4T1 [9]", "result": "Active"}, {"measurement": "residual activity", "setting": "[10]", "result": 40, "unit": "%"}, {"measurement": "residual activity", "setting": "[11]", "result": 111, "unit": "%"}, {"measurement": "residual activity", "setting": "[12]", "result": 84, "unit": "%"}, {"measurement": "residual activity", "setting": "[13]", "result": 114, "unit": "%"}, {"measurement": "residual activity", "setting": "[14]", "result": 150, "unit": "%"}, {"measurement": "residual activity", "setting": "[15]", "result": 110, "unit": "%"}, {"measurement": "residual activity", "setting": "[16]", "result": 119, "unit": "%"}, {"measurement": "residual activity", "setting": "[17]", "result": 111, "unit": "%"}, {"measurement": "residual activity", "setting": "Homo sapiens", "result": 91, "unit": "%"}]}
